Patent publication US20250002455A1, “NEW N-PHENYLPYRROLAMIDE INHIBITORS OF DNA GYRASE AND TOPOISOMERASE IV WITH ANTIBACTERIAL ACTIVITY” (priority 2020, published 2025)

Key:
[1] = biological target: T1, E. coli topoisomerase IV (Escherichia coli, UniProt P20083); assay: biochemical; conditions: E. coli topo IV, read-out: RA (residual activity of the enzyme)
T1 construct: purchased Inspiralis
Procedure: Inhibitory activities for compounds of the present invention were determined on E. coli and S. aureus DNA gyrase and topoisomerase IV in an assay from Inspiralis on streptavidin-coated 96-well microtiter plates from Thermo scientific Pierce. […] After washing off the unbound oligonucleotide, the enzyme test was performed. […] Reaction solutions were incubated at 37° C. for 30 min. After that, the TF buffer (50 mM NaOAc with pH 5.0, 50 mM NaCl and 50 mM MgCl2) was added to terminate the enzymatic reaction. After additional incubation for 30 min at rt, during which biotin-oligonucleotide-plasmid triplex was formed, the unbound plasmid was washed off using TF buffer and SybrGOLD in T10 buffer (10 mM Tris HCl with pH 8.0 and 1 mM EDTA) was added. […] Initial screening was done at 100 or 10 nM concentration of inhibitors against E. coli DNA gyrase or 1 μM or 100 nM concentration against S. aureus DNA gyrase and E. coli and S. aureus topo IV. […] GraphPad Prism 6.0 software was used to calculate the IC50 values. The result is given as the average value of three independent measurements. […] Chemoth.

[2] = biological target: T2, E. coli DNA gyrase (Escherichia coli, UniProt P0AES6); assay: biochemical; conditions: E. coli DNA gyrase; read-out: IC50
T2 construct: purchased Inspiralis
Procedure: Inhibitory activities for compounds of the present invention were determined on E. coli and S. aureus DNA gyrase and topoisomerase IV in an assay from Inspiralis on streptavidin-coated 96-well microtiter plates from Thermo scientific Pierce. […] After washing off the unbound oligonucleotide, the enzyme test was performed. […] Reaction solutions were incubated at 37° C. for 30 min. After that, the TF buffer (50 mM NaOAc with pH 5.0, 50 mM NaCl and 50 mM MgCl2) was added to terminate the enzymatic reaction. After additional incubation for 30 min at rt, during which biotin-oligonucleotide-plasmid triplex was formed, the unbound plasmid was washed off using TF buffer and SybrGOLD in T10 buffer (10 mM Tris HCl with pH 8.0 and 1 mM EDTA) was added. […] GraphPad Prism 6.0 software was used to calculate the IC50 values. The result is given as the average value of three independent measurements. […] Chemoth.

[3] = system: S. aureus ATCC 29213; assay: Microbroth dilution MIC (CLSI); assay type: cell-based; conditions: Staphylococcus aureus, ATCC29213; S. aureus ATCC 29213; read-out: MIC
Procedure: (§1) The chemical entities described in the present invention were assessed for their antimicrobial activity using a microbroth dilution assay as recommended by the CLSI (Methods for Dilution Antimicrobial Susceptibility Tests for Bacteria That Grow Aerobically, and Methods for Antimicrobial Susceptibility Testing of Anaerobic Bacteria, Clinical and Laboratory Standards Institute, Document M07-A8, and M11-A8, Wayne, PA 19087, USA, 2012.). Compounds were dissolved by using 100% DMSO. Serial two-fold dilutions of each compound were made by using 100% DMSO as the diluent.
(§2) A library of Gram-negative and Gram-positive microbes and their drug- and multidrug-resistant variants were employed as test organisms. The MIC (minimum inhibitory concentration) was determined as the lowest concentration of an individual drug that lead to no visible growth.

[4] = system: S. aureus ATCC 43300 (MRSA); assay: Microbroth dilution MIC (CLSI); assay type: cell-based; conditions: Staphylococcus aureus; S. aureus ATCC 43300 (MRSA); read-out: MIC
Procedure: as §1, §2

[5] = system: K. pneumoniae ATCC 10031; assay: Microbroth dilution MIC (CLSI); assay type: cell-based; conditions: Klebsiella pneumoniae, ATCC10031; K. pneumoniae ATCC 10031; read-out: MIC
Procedure: as §1, §2

[6] = system: A. baumannii ATCC 17978; assay: Microbroth dilution MIC (CLSI); assay type: cell-based; conditions: Acinetobacter baumannii, ATCC17978; A. baumannii ATCC 17978; read-out: MIC
Procedure: as §1, §2

[7] = system: S. aureus ATCC 700699 (VISA); assay: Microbroth dilution MIC (CLSI); assay type: cell-based; conditions: Staphylococcus aureus; S. aureus ATCC 700699 (VISA); read-out: MIC
Procedure: as §1, §2

[8] = system: E. faecalis ATCC 29212; assay: Microbroth dilution MIC (CLSI); assay type: cell-based; conditions: Enterococcus faecalis, ATCC29212; E. faecalis ATCC 29212; read-out: MIC
Procedure: as §1, §2

[9] = system: E. spp. cloacae ATCC 13047; assay: Microbroth dilution MIC (CLSI); assay type: cell-based; conditions: Enterobacter cloacae, ATCC13047; E. spp. cloacae ATCC 13047; read-out: MIC
Procedure: as §1, §2

[10] = system: E. faecium ATCC 700221; assay: Microbroth dilution MIC (CLSI); assay type: cell-based; conditions: Enterococcus faecium, ATCC700221; E. faecium ATCC 700221; read-out: MIC
Procedure: as §1, §2

[11] = system: E. coli ATCC 25922; assay: Microbroth dilution MIC (CLSI); assay type: cell-based; conditions: Escherichia coli, ATCC25922; E. coli ATCC 25922; read-out: MIC
Procedure: as §1, §2

[12] = system: P. aeruginosa ATCC 27853; assay: Microbroth dilution MIC (CLSI); assay type: cell-based; conditions: Pseudomonas aeruginosa, ATCC27853; P. aeruginosa ATCC 27853; read-out: MIC
Procedure: as §1, §2

T1 sequence (P0AFI2 whole entry): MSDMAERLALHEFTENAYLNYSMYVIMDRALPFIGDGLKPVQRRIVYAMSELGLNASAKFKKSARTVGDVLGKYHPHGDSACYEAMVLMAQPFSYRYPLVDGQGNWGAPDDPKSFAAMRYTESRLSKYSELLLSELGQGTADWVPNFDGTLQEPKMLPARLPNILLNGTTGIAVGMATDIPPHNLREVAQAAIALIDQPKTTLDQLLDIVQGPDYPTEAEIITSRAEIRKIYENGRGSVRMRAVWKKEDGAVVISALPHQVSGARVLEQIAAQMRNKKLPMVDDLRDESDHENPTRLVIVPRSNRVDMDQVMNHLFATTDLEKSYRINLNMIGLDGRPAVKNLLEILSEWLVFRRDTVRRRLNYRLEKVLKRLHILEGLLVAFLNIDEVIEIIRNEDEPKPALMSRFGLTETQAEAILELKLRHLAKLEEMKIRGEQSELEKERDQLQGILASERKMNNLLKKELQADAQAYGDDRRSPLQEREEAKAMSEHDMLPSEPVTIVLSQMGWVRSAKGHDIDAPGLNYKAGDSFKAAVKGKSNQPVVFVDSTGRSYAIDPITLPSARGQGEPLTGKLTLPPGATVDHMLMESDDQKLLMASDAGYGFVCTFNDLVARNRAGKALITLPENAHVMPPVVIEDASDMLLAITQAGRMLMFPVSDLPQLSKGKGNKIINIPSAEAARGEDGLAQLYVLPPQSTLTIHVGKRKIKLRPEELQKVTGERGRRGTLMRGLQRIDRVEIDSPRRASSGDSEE
T1 sequence (P20083 whole entry): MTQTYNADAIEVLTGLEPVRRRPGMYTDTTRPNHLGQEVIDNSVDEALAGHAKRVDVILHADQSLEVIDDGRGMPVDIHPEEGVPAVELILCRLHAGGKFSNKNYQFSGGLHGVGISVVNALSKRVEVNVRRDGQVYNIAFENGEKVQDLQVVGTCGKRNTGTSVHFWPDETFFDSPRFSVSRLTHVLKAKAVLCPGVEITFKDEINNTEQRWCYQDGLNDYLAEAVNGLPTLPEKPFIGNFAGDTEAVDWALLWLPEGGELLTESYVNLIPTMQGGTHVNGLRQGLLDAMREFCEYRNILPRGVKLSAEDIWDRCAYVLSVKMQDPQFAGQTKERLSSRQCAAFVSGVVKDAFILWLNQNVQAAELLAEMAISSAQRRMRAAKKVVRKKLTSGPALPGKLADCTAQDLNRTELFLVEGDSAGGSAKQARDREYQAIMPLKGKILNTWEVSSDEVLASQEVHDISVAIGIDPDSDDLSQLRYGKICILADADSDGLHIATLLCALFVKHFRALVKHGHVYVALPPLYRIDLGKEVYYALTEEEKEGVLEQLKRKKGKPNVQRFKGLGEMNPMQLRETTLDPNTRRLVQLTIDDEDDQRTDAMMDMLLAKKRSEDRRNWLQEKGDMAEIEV

SMILES	remaining activity at 1 µM ([1]; 1 μM compound)	remaining activity at 10 µM ([1]; 10 μM compound)	IC50 [2]	MIC [3]	MIC [4]	MIC [5]	MIC [6]	MIC [7]	MIC [8]	MIC [9]	MIC [10]	MIC [11]	MIC [12]
Cc1[nH]c(C(=O)Nc2ccc(-c3n[nH]c(=O)o3)cc2N2CC(C)OC(C)C2)c(Cl)c1Cl (centres unmarked) [Example 44, 3,4-dichloro-N-(2-(2,6-dimethylmorpholino)-4-(5-oxo-4,5-dihydro-1,3,4-oxadiazol-2-yl)phenyl)-5-methyl-1H-pyrrole-2-carboxamide]	105%	105%	0.109 µM	–	–	–	–	–	–	–	–	–	–
Cc1[nH]c(C(=O)Nc2ccc(C(=O)O)cc2NC2CCNCC2)c(Cl)c1Cl.Cl [Example 15, 4-((5-Carboxy-2-(3,4-dichloro-5-methyl-1H-pyrrole-2-carboxamido)phenyl)amino)piperidin-1-ium chloride]	–	–	0.532 µM	> 64 mg/L	> 64 mg/L	> 64 mg/L	> 64 mg/L	> 64 mg/L	> 64 mg/L	> 64 mg/L	> 64 mg/L	> 64 mg/L	> 64 mg/L
Cc1[nH]c(C(=O)Nc2ccc(C(=O)O)cc2N2CCN(c3ccccc3)CC2)c(Cl)c1Cl [Example 16, 4-(3,4-Dichloro-5-methyl-1H-pyrrole-2-carboxamido)-3-(4-phenylpiperazin-1-yl)benzoic acid]	–	–	0.199 µM	> 64 mg/L	> 64 mg/L	> 64 mg/L	> 64 mg/L	> 64 mg/L	> 64 mg/L	> 64 mg/L	> 64 mg/L	> 64 mg/L	> 64 mg/L
Cc1[nH]c(C(=O)Nc2ccc(-c3n[nH]c(=O)o3)cc2OCc2ccncc2)c(Cl)c1Cl [Example 30, 3,4-Dichloro-5-methyl-N-(4-(5-oxo-4,5-dihydro-1,3,4-oxadiazol-2-yl)-2-(pyridin-4-ylmethoxy)phenyl)-1H-pyrrole-2-carboxamide]	–	–	0.0422 µM	–	–	–	–	–	–	–	–	–	–
Cc1[nH]c(C(=O)Nc2ccc(-c3n[nH]c(=O)o3)cc2OC2CCNC2)c(Cl)c1Cl.Cl (centres unmarked) [Example 26, 3-(2-(3,4-Dichloro-5-methyl-1H-pyrrole-2-carboxamido)-5-(5-oxo-4,5-dihydro-1,3,4-oxadiazol-2-yl)phenoxy)pyrrolidin-1-ium chloride]	–	–	0.00354 µM	≥ 32 mg/L	≥ 32 mg/L	≥ 32 mg/L	≥ 32 mg/L	≥ 32 mg/L	≥ 32 mg/L	≥ 32 mg/L	≥ 32 mg/L	≥ 32 mg/L	≥ 32 mg/L
Cc1[nH]c(C(=O)Nc2ccc(-c3n[nH]c(=O)o3)cc2OCc2cccs2)c(Cl)c1Cl [Example 33, 3,4-Dichloro-5-methyl-N-(4-(5-oxo-4,5-dihydro-1,3,4-oxadiazol-2-yl)-2-(thiophen-2-ylmethoxy)phenyl)-1H-pyrrole-2-carboxamide]	–	–	3.74 µM	–	–	–	–	–	–	–	–	–	–
